Values quoted from earlier work in patent US9682063B2, “HCD formulation for cancer treatment” (National Dong Hwa University, priority 2015, dated 2017).

Key:
[1] = background statement
[2] = tested on: CML K562 cells; conditions: background statement

- water solubility [1]: poor water solubility
SMILES: CC1=CCCC2C1(C)CCC(C)C2(C)CCC1=CC(=O)OC1O (centres unmarked) [HCD, 16-Hydroxycleroda-3,13-dien-15,16-olide]
- apoptosis in CML K562 cells [2]: induces apoptosis in CML K562 cells
